Our source for the IC50 values is patent US8129403B2, “Chemical compounds” (AstraZeneca AB, priority 2005, dated 2012).

The target in this experiment is T1, human Trk A kinase (Homo sapiens, UniProt P04629).
T1 construct: HIS tag; made in house; host or cells: SF9 insect cells
T1 sequence (P04629 442-796): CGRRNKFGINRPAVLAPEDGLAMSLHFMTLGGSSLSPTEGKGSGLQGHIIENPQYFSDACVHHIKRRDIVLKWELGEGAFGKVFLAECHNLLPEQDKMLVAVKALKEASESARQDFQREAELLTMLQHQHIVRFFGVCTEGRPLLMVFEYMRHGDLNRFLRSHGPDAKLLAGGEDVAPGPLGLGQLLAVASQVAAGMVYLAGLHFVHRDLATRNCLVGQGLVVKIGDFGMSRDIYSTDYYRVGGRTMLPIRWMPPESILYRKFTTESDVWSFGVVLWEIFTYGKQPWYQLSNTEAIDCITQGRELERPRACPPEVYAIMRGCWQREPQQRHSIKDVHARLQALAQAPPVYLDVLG
The experiment in a line: Trk A Assay (Alphascreen kinase assay). Format: biochemical. The settings on record: intracellular domain of HIS-tagged human Trk A, 70 μM ATP, PolyEY-biotin substrate, 20 minutes room temperature; read-out: IC50 (μM), Trk inhibitory activity. Here is the method: Trk A kinase activity was measured for its ability to phosphorylate synthetic tyrosine residues within a generic polypeptide substrate using an Amplified Luminescent Proximity Assay (Alphascreen) technology (PerkinElmer, 549 Albany Street, Boston, Mass.).
To measure Trk A kinase activity, the intracellular domain of a HIS-tagged human Trk A kinase (amino acids 442-796 of Trk A, Swiss-Prot Primary Accession Number P04629) was expressed in SF9 cells and purified using standard nickel column chromatography. After incubation of the kinase with a biotinylated substrate and adenosine triphosphate (ATP) for 20 minutes at room temperature, the kinase reaction was stopped by the addition of 30 mM ethylenediaminetetraacetic acid (EDTA). The reaction was performed in 384 well microtitre plates and the reaction products were detected with the addition of strepavidin coated Donor Beads and phosphotyrosine-specific antibodies coated Acceptor Beads using the EnVision Multilabel Plate Reader after an overnight incubation at room temperature.
(In general: Bead proximity is the source of the signal in Alpha formats.)
`Fc1ccc(CNc2ccc3ncn(-c4cc(C5CC5)[nH]n4)c3n2)cc1` [Example 14, N-(4-Fluorobenzyl)-3-(5-cyclopropyl-1H-pyrazol-3-yl)-3H-imidazo[4,5-b]pyridin-5-amine]: the IC50 (commonly the point on the concentration scale where inhibition reaches its midpoint) was 0.022 µM.

For `Fc1ccc(CNc2ccc3ncn(-c4cc(C5CC5)[nH]n4)c3c2)cc1` [Example 29, N-(4-Fluorobenzyl)-3-(5-cyclopropyl-1H-pyrazol-3-yl)-3H-benzo[d]imidazol-5-amine], the IC50 came to 0.015 µM.

For `Fc1ccc(CNc2ncc3ncn(-c4cc(C5CC5)[nH]n4)c3n2)cc1` [Example 4, 9-(5-Cyclopropyl-1H-pyrazol-3-yl)-N-(4-fluorobenzyl)-9H-purin-2-amine], the IC50 amounted to 0.02 µM.
